One assay concerns the target His-Brd4(44-477) (Homo sapiens (Human), UniProt O60885). The assay is described as follows: TR-FRET in-vitro binding assay for BRD4. As to conditions: biochemical. A digest of the protocol: (§1)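 Bromodomain protein (45 nM in its addition solution) and tetra-acetylated histone H4 peptide (AcK5/8/12/16; 60 nM in its addition solution) were incubated with compounds for 35 min at 30 °C in 50 mM HEPES pH 7.5, 50 mM NaCl, 0.005% Tween20, 0.1% BSA. Eu-anti-His6 plus streptavidin-allophycocyanin detection followed, with TR-FRET read-out.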

In the next assay the test system is THP-1 cells. The experiment in a line: Cell growth inhibition assay (CellTiter-Glo), THP-1. The class given is cell-based. As to conditions: Homo sapiens, read-out: THP-1 TGI. The protocol: (§2) Cell Growth Inhibition Assay
(§3) The human leukemia cell lines MV-4-11, THP-1 and K-562 were employed to characterize the effect of BET inhibitors on cellular proliferation and viability. Cells were obtained from the American Type Culture Collection (ATCC) and cultured at 37° C. in a humidified 5% CO2 incubator in the following media: MV-4-11: DMEM high glucose (Animed #1-26F01-I), 10% FCS (Animed #2-01F26-I), 4 mM L-Glutamine (Animed #5-10K50), 1 mM Sodium Pyruvate (Animed # G03625P), 1× Penicillin-Streptomycin (Animed # F12478P); K-562: Iscove's MEM (Animed #1-28F16-I), 10% FCS (Animed #2-01F26-I), 4 mM L-Glutamine (Animed #5-10K50), 1× Penicillin-Streptomycin (Animed # F12478P); THP-1: RPMI-1640 (Animed #1-41F01-I), 10% FCS (Animed #2-01F26-I), 2 mM L-Glutamine (Animed #5-10K50), 10 mM HEPES (Animed #5-31F100), 1 mM Sodium Pyruvate (Animed # G03625P), 1× Penicillin-Streptomycin (Animed # F12478P). The AML lines MV-4-11 and THP-1 are very sensitive to BET inhibitors and show massive cell death upon BET inhibition (Zuber et al., Nature, 478 (2011), 524-8). Compound-mediated suppression of cell proliferation/viability was assessed by quantification of cellular ATP levels using the CellTiter-Glo (CTG) reagent (Promega). Briefly, cells were seeded in 20 μl fresh medium into 384-well plates, followed by addition of 5 μL medium containing compound dilutions at 5-fold their final intended concentration. Dose-response effects were assessed by 3-fold serial dilutions of the test compound, starting at 10 μM. Following incubation of the cells for days at 37° C. and 5% CO2, the effect of inhibitors on cell viability was quantified following addition of 20 μl CTG and luminescence quantification (integration time: 100 ms) as per vendor manual, using a correspondingly equipped Tecan M200 multi-mode platereader (TECAN, Switzerland). For data analysis, the assay background value determined in wells containing medium, but no cells, was subtracted from all data points. To enable differentiation of cytotoxic from cytostatic compounds, the number of viable cells is assessed relative to that observed at the time of compound addition using a separate cell plate (day 0). The effect of a particular test compound concentration on cell proliferation/viability is expressed as percentage of the background- and day 0-corrected luminescence reading obtained for cells treated with vehicle only (DMSO, 0.1% final concentration), which is set as 100%, whereas that luminescence reading for wells containing medium is set as −100%. Compound concentrations leading to half-maximal (IC50) and total growth inhibition (TGI) were determined using standard four parameter curve fitting.

In a further assay the test system is K-562 cells. The assay is described as follows: Cell growth inhibition assay (CellTiter-Glo), K-562. The class given is cell-based, human. As to conditions: Homo sapiens, K562, read-out: K-562 TGI. The method, then: as §2, §3
Assay [1] concerns the target His-CREBBP (1081-1197) bromodomain (Homo sapiens (Human), UniProt Q92793). The experiment in a line: AlphaScreen in-vitro binding assay for CREBBP. As to conditions: biochemical. The method, then: AlphaScreen In-Vitro Binding Assay for CREBBP
In order to assess bromodomain selectivity, we set up a binding assay using the bromodomain encoded by the CREBBP gene. […] Reactions were incubated at 30° C. for 35 minutes. Subsequently 4.5 μL per well detection mix (50 mM HEPES, pH 7.5, 0.005% Tween20, 0.02% BSA, 150 mM NaCl, 45 μg/ml Ni-chelate acceptor beads, 45 μg/mL streptavidin-donor beads) (Perkin Elmer)) were added. After 60 minutes incubation at room temperature, plates were measured in a Perkin Elmer EnVision multilabel reader. IC50 values were determined from percent inhibition values at different compound concentrations by non-linear regression analysis.
Test compounds were dissolved in DMSO (10 mM) and transferred into 1.4 mL flat bottom or V-shaped Matrix tubes carrying a unique 2D matrix. The stock solutions were stored at […] if not used immediately. For the test procedure the vials were defrosted and identified by a scanner whereby a working sheet was generated that guided the subsequent working steps. Compound dilutions were made in 96 well plates. This format enabled the assay of maximally […] at 8 concentrations (single points) including 4 reference compounds, if desired (known BET inhibitors from the prior art, for this and other assays of the type disclosed herein). The dilution protocol included the production of “pre-dilution plates”, “master plates” and “assay plates”.
Polypropylene 96-well plates were used as pre-dilution plates. […] All dilution steps were done on a HamiltonSTAR robot.
These plates were used directly for the assay which was performed in a total volume of 13.55 μL.

The next assay relates to MV-4-11 cells. The assay is described as follows: Cell growth inhibition assay (CellTiter-Glo), MV-4-11. The class given is cell-based. As to conditions: Homo sapiens, MV4-11, read-out: MV-4-11 TGI. The protocol:
as §2, §3

In the next assay the target is His-Brd3(20-477) (Homo sapiens (Human), UniProt Q15059). The assay is described as follows: TR-FRET in-vitro binding assay for BRD3. As to conditions: biochemical. A digest of the protocol: as §1
Chain of His-Brd3(20-477) (Q15059 20-477): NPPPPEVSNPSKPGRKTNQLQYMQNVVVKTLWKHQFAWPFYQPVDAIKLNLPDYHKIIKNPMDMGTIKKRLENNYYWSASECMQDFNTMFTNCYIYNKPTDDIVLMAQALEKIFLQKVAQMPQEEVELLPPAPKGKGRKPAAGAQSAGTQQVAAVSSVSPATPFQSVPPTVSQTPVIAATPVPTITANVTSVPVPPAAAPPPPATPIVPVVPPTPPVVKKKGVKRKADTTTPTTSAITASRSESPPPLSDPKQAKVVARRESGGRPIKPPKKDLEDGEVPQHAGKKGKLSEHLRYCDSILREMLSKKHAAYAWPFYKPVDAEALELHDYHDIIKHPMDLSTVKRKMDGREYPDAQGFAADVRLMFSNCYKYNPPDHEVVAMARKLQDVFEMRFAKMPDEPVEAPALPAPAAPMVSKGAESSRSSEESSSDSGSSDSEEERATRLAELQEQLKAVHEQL
Another assay addresses His-Brd2(60-472) (Homo sapiens (Human), UniProt P25440). The experiment in a line: TR-FRET in-vitro binding assay for BRD2. As to conditions: biochemical. A digest of the protocol: as §1

A value given as a limit tells only on which side of the number the result lay.

Chain of His-Brd2(60-472) (P25440 60-472): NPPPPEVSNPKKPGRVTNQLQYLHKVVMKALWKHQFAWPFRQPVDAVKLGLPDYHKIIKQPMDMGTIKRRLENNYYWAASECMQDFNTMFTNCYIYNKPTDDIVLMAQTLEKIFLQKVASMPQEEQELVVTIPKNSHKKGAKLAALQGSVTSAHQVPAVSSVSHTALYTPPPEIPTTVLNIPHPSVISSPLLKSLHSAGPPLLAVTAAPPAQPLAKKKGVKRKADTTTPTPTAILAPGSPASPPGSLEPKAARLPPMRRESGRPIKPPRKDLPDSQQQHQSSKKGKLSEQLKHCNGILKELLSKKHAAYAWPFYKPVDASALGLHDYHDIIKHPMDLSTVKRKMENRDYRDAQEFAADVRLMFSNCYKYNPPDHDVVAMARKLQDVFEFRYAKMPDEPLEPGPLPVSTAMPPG
Chain of His-CREBBP (1081-1197) bromodomain (Q92793 1081-1197): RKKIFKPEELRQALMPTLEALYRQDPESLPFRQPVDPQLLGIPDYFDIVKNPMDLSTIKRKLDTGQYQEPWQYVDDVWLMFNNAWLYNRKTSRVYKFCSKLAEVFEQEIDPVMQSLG

On to `COCc1nn(C2CC2)c2c1[C@@H](c1ccc(Cl)cc1)N(c1cc(C)c3nnc(C)n3c1)C2=O` [Example 163, […]], for which the IC50 was under 11 nM at His-Brd4(44-477) and 11000 nM in assay [1]. The IC (total growth inhibition) was 0.0461 µM in the assay on THP-1 cells, over 10 µM with K-562 cells and 0.022 µM with MV-4-11 cells.
For the compound `COc1ccccc1-n1nc(C)c2c1C(=O)N(c1cc(C)c3nnc(C)n3c1)C2c1ccc(Cl)cc1F` (stereo not shown) [Example 187, 4-(4-chloro-2-fluorophenyl)-5-(3,8-dimethyl-[1,2,4]triazolo[4,3-a]pyridin-6-yl)-1-(2-methoxyphenyl)-3-methyl-4,5-dihydropyrrolo[3,4-c]pyrazol-6(1H)-one], the values for the IC50 (at His-Brd4(44-477); on His-Brd3(20-477); in assay [1]) were 27 nM, 42 nM and 33000 nM, respectively. Besides, the IC (total growth inhibition) was 0.223 µM in the assay with THP-1 cells, over 10 µM in the assay with K-562 cells and 0.209 µM with MV-4-11 cells.
Take `Cc1n[nH]c2c1C(c1ccc(Cl)cc1F)N(c1cc(C)c3nnc(C)n3c1)C2=O` (stereo not shown) [Example 183, 4-(4-chloro-2-fluorophenyl)-5-(3,8-dimethyl-[1,2,4]triazolo[4,3-a]pyridin-6-yl)-3-methyl-4,5-dihydropyrrolo[3,4-c]pyrazol-6(2H)-one]: the results for the IC50 (at His-Brd4(44-477); at His-Brd3(20-477); in assay [1]) were 82 nM, 75 nM and over 24000 nM, respectively. Moreover, the IC (total growth inhibition) in the assay with THP-1 cells is 0.314 µM; in the assay on K-562 cells, over 10 µM; in the assay with MV-4-11 cells, 0.126 µM.
In the case of `Cc1nn(C2CC2)c2c1C(c1ccc(Cl)cc1)N(c1cc(C)c3nnc(C)n3c1)C2=O` (stereo not shown) [Example 92, 4-(4-chlorophenyl)-1-cyclopropyl-5-(3,8-dimethyl-[1,2,4]triazolo[4,3-a]pyridin-6-yl)-3-methyl-4,5-dihydropyrrolo[3,4-c]pyrazol-6(1H)-one], the IC (total growth inhibition) with THP-1 cells is 0.0395 µM; in the assay on K-562 cells, over 10 µM; with MV-4-11 cells it was 0.0175 µM. The IC50 at His-Brd3(20-477) is 27 nM; in assay [1], 14900 nM.
As to `Cc1c2c(nn1C)C(=O)N(c1cc(Cl)c(=O)n(C)c1)[C@@H]2c1ccc(Cl)cc1` [Example 7, (R)-5-(5-chloro-1-methyl-6-oxo-1,6-dihydropyridin-3-yl)-4-(4-chlorophenyl)-2,3-dimethyl-4,5-dihydropyrrolo[3,4-c]pyrazol-6(2H)-one], the IC50 turned out to be 72 nM at His-Brd4(44-477), 100 nM at His-Brd2(60-472) and 67 nM on His-Brd3(20-477). Also, the figures for the IC (total growth inhibition) in the assay on THP-1 cells, in the assay on K-562 cells and with MV-4-11 cells were 0.191 µM, over 10 µM and 0.107 µM, respectively.
Take `Cc1cc(N2C(=O)c3nn(C4CC4)c(C)c3[C@H]2c2ccc(Cl)cc2)cn(C)c1=O` [Example 21]: the IC50 came to 47 nM at His-Brd4(44-477), 48 nM at His-Brd2(60-472) and 43 nM on His-Brd3(20-477). The IC (total growth inhibition) was 0.0687 µM in the assay on THP-1 cells, over 10 µM in the assay with K-562 cells and 0.0378 µM in the assay on MV-4-11 cells.
`Cc1cc(N2C(=O)c3nn(C)cc3[C@H]2c2ccc(Cl)cc2)cn(C)c1=O` [Example 16, (R)-4-(4-chlorophenyl)-5-(1,5-dimethyl-6-oxo-1,6-dihydropyridin-3-yl)-2-methyl-4,5-dihydropyrrolo[3,4-c]pyrazol-6(2H)-one]: the values for the IC50 on His-Brd4(44-477), at His-Brd2(60-472) and on His-Brd3(20-477) were 81 nM, 100 nM and 66 nM, respectively. The IC (total growth inhibition) is 0.207 µM in the assay on THP-1 cells, over 10 µM in the assay with K-562 cells and 0.116 µM with MV-4-11 cells.
As to `COc1ncc(-n2nc(C)c3c2C(=O)N(c2cc(Cl)c(=O)n(C)c2)C3c2ccc(Cl)cc2)c(OC)n1` (stereo not shown) [Example 53, 5-(5-chloro-1-methyl-6-oxo-1,6-dihydropyridin-3-yl)-4-(4-chlorophenyl)-1-(2,4-dimethoxypyrimidin-5-yl)-3-methyl-4,5-dihydropyrrolo[3,4-c]pyrazol-6(1H)-one], the IC50 turned out to be 130 nM on His-Brd4(44-477), 98 nM on His-Brd2(60-472) and 120 nM at His-Brd3(20-477). Further, the IC (total growth inhibition) with THP-1 cells is 0.685 µM; in the assay with K-562 cells, over 10 µM; in the assay on MV-4-11 cells it was 0.372 µM.
As to `COc1ncc(-n2nc3c(c2C(C)C)[C@H](c2ccc(Cl)cc2)N(c2cc(C)c4onc(C)c4c2)C3=O)c(OC)n1` [Example 61, (S)-4-(4-chlorophenyl)-2-(2,4-dimethoxypyrimidin-5-yl)-5-(3,7-dimethylbenzo[d]isoxazol-5-yl)-3-isopropyl-4,5-dihydropyrrolo[3,4-c]pyrazol-6(2H)-one], the IC50 (on His-Brd4(44-477); on His-Brd3(20-477); in assay [1]) was over 37000 nM in each case. In addition, the results for the IC (total growth inhibition) with THP-1 cells, with K-562 cells and with MV-4-11 cells were over 10 µM, over 10 µM and 1.09 µM, respectively.
`Cc1cc(N2C(=O)c3c(c(C4CC4)nn3C)[C@H]2c2ccc(Cl)cc2)cn2c(C)nnc12` [Example 164, (R)-4-(4-chlorophenyl)-3-cyclopropyl-5-(3,8-dimethyl-[1,2,4]triazolo[4,3-a]pyridin-6-yl)-1-methyl-4,5-dihydropyrrolo[3,4-c]pyrazol-6(1H)-one]: the IC (total growth inhibition) was 0.0173 µM with THP-1 cells, over 10 µM in the assay on K-562 cells and 0.0118 µM in the assay with MV-4-11 cells. The IC50 in assay [1] was 5100 nM.
Consider `Cc1nn(C2CC2)c2c1[C@@H](c1ccc(Cl)cc1)N(c1cc(C)c3nnc(C)n3c1)C2=O` [Example 119, (R)-4-(4-chlorophenyl)-1-cyclopropyl-5-(3,8-dimethyl-[1,2,4]triazolo[4,3-a]pyridin-6-yl)-3-methyl-4,5-dihydropyrrolo[3,4-c]pyrazol-6(1H)-one], for which the values for the IC (total growth inhibition) with THP-1 cells, in the assay with K-562 cells and with MV-4-11 cells were 0.0226 µM, over 10 µM and 0.0116 µM, respectively. Moreover, the IC50 was 17 nM at His-Brd3(20-477) and 8900 nM in assay [1].

(Values after patent US8975417B2, “Pyrazolopyrrolidine derivatives and their use in the treatment of disease” (Novartis AG, priority 2013, dated 2015).)
